Experimental findings from patent US20080261994A1, “CYCLOPROPANE COMPOUNDS AND PHARMACEUTICAL USE THEREOF” (Japan Tobacco Inc., priority 2003, published 2008) are described below.

Molecules are shown by their SMILES. Structures can show the parent of a compound that is named as a salt. Where two headings read alike, the source gives them in different places.

Format in all cases: biochemical
For one experiment, the target named is T1, Recombinant Human MMP-13 (Homo sapiens, UniProt P45452).
T1 construct: purchased R&D systems 511-MM
The experiment in a line: MMP-13 inhibitory activity (MMP-13 specific fluorescent substrate with quencher). Put shortly:
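Recombinant human MMP-13 with test compound, reaction started with quenched fluorogenic peptide 7-MCA-Pro-CHA-Gly-NVal-His-Ala-DPA in Tris-HCl buffer, 1 h at 25 °C, stopped with acetic acid. Fluorescence at Ex 325/Em 405 nm; % inhibition versus enzyme-free and inhibitor-free wells, reported as IC50 (μM).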

The target in another experiment is T2, MMP-1 (Homo sapiens, UniProt P03956).
T2 sequence (P03956 100-469): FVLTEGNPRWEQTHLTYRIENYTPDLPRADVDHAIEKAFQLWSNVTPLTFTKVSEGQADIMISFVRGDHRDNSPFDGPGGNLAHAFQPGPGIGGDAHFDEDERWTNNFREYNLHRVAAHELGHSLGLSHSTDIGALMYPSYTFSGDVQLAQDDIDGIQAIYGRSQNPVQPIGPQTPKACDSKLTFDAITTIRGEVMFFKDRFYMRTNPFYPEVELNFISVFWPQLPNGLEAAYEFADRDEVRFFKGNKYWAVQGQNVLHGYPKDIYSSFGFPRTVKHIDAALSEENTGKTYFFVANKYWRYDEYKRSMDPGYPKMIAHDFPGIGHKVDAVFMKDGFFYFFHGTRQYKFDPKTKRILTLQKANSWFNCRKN
The experiment in a line: MMP-1 inhibitory action (Type I collagen Activity Measurement kit, FITC-labeled collagen type I).

For the next experiment, the target named is T3, aggrecanase-1 (Homo sapiens, UniProt O75173).
T3 sequence (O75173 213-837): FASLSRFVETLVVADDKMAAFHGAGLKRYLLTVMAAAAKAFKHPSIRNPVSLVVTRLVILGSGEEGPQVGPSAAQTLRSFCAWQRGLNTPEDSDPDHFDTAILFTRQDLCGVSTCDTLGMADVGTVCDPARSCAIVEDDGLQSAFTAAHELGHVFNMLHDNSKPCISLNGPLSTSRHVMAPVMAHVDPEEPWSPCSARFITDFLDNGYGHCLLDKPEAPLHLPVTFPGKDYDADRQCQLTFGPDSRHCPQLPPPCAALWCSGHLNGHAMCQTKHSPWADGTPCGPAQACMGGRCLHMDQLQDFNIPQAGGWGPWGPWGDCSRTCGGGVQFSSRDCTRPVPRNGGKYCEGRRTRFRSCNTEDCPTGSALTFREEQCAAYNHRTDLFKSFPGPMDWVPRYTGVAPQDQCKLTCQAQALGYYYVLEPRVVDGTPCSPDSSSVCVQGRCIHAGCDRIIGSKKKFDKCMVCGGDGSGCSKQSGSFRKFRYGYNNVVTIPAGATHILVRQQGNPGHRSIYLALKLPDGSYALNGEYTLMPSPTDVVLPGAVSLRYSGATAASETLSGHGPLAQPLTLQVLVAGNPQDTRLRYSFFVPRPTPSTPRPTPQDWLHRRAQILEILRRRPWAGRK
The experiment in a line: Aggrecanase-1 inhibitory action (Particle Assay, GAG release from aggrecan-containing polyacrylamide particles). Put shortly:
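Enzyme and compound incubated with aggrecan-containing polyacrylamide particles in Tris-HCl buffer at 37° C for 15 h. Released GAG in supernatant measured with 1,9-dimethylmethylene blue at 595 nm against chondroitin sulfate standard; % inhibition from enzyme-free and inhibitor-free wells, reported as TC50 (μM).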

The mark [1] stands for this setting: Recombinant Human MMP-13, fluorescent substrate, 25° C. for 1 h, read-out: IC50 MMP13 (Experimental Example 3).
Where [2] appears, read: MMP-1 inhibitory action, FITC-labeled collagen type I, 37° C. for 3 hr, read-out: IC50 MMP1 (Experimental Example 2).
Setting [3] is: aggrecanase-1 inhibitory action, read-out: IC50 AG1 (Experimental Example 1).
[4] abbreviates: Experimental Example 3, read-out: IC50 MMP13.
The mark [5] stands for this setting: Experimental Example 2, read-out: IC50 MMP1.
Setting [6] is: Experimental Example 1, read-out: IC50 AG1.

The term IC50 denotes the midpoint of a concentration-inhibition curve. For the molecule `CN1CCN(c2ccc(C3CC3(NS(=O)(=O)c3ccc(-c4ccc(Cl)cc4)s3)C(=O)O)cc2)CC1` (stereo not drawn) [Example 2-247], the concentration for half-maximal inhibition (IC50) on Recombinant Human MMP-13 (setting [1]), on MMP-1 (setting [2]) and on aggrecanase-1 (setting [3]) was at least 10 µM each time.

As for `O=C(O)C1(NS(=O)(=O)c2ccc(-c3ccc(Cl)cc3)s2)CC1c1ccc(CO)cc1` (stereo not drawn) [Example 2-226], the IC50 at Recombinant Human MMP-13 (setting [1]) is below 1 µM; at MMP-1 (setting [2]), at least 10 µM; on aggrecanase-1 (setting [3]), below 1 µM.

Take `O=C(O)C1(NS(=O)(=O)c2ccc(-c3ccc(Cl)cc3)cc2)CC1c1cccc(Oc2ccc(Cl)cc2)c1` (stereo not drawn) [Example 1-11]: the figures for the IC50 on Recombinant Human MMP-13 (setting [1]), at MMP-1 (setting [2]) and at aggrecanase-1 (setting [3]) were below 1 µM, at least 1 µM and below 1 µM, respectively.

Turning to `O=C(O)[C@]1(NS(=O)(=O)c2ccc(C3=CCNCC3)s2)C[C@@H]1c1ccccc1` [Example 2-2, (1S,2R)-2-phenyl-1-[5-(1,2,3,6-tetrahydro-pyridin-4-yl)-thiophene-2-sulfonylamino]-cyclopropanecarboxylic acid hydrochloride], the IC50 at Recombinant Human MMP-13 (setting [1]), on MMP-1 (setting [2]) and on aggrecanase-1 (setting [3]) was at least 10 µM each time.

On to `CC(C)(C)NCCOc1ccccc1C1CC1(NS(=O)(=O)c1ccc(-c2ccc(Cl)cc2)s1)C(=O)O` (stereo not drawn) [Example 2-53], for which the IC50 is at least 1 µM on Recombinant Human MMP-13 (setting [1]), at least 10 µM on MMP-1 (setting [2]) and at least 1 µM on aggrecanase-1 (setting [3]).

As for `Cc1nc(-c2ccc(S(=O)(=O)NC3(C(=O)O)CC3c3ccccc3)s2)co1` (stereo not drawn) [Example 2-87], the IC50 on Recombinant Human MMP-13 (setting [1]) is at least 1 µM; at MMP-1 (setting [2]), at least 10 µM; at aggrecanase-1 (setting [3]), at least 10 µM.

Turning to `O=C(O)C1(NS(=O)(=O)c2ccc(-c3ccc(Cl)cc3)s2)CC1c1ccccc1OCCO` (stereo not drawn) [Example 1-138], the IC50 at Recombinant Human MMP-13 (setting [1]) was below 1 µM; at MMP-1 (setting [2]) it was at least 1 µM; on aggrecanase-1 (setting [3]) it was below 0.1 µM.

Regarding `O=C(O)C1(NS(=O)(=O)c2ccc(-c3ccc(Cl)cc3)s2)CC1(CO)c1ccccc1` (stereo not drawn) [Example 2-229], the figures for the IC50 on Recombinant Human MMP-13 (setting [1]), at MMP-1 (setting [2]) and at aggrecanase-1 (setting [3]) were below 1 µM, at least 10 µM and below 1 µM, respectively.

Regarding `CC1[C@H](c2ccccc2)[C@]1(NS(=O)(=O)c1ccc2nc(-c3ccccc3)[nH]c2c1)C(=O)O` (stereo partly drawn) [Example 2-596], the values for the IC50 at Recombinant Human MMP-13 (setting [4]), on MMP-1 (setting [5]) and on aggrecanase-1 (setting [6]) were below 1 µM, at least 1 µM and below 1 µM, respectively.

Take `C#Cc1ccc(S(=O)(=O)N[C@@]2(C(=O)O)C(C)[C@@H]2c2ccccc2)s1` (stereo partly drawn) [Example 2-424]: the concentration for half-maximal inhibition (IC50) on Recombinant Human MMP-13 (setting [4]) was below 1 µM; at MMP-1 (setting [5]), below 1 µM; on aggrecanase-1 (setting [6]), at least 10 µM.

Take `O=C(Nc1ccccc1)c1ccc(S(=O)(=O)NC2(C(=O)O)CC2c2ccccc2)s1` (stereo not drawn) [Example 2-96]: the IC50 on Recombinant Human MMP-13 (setting [1]) was below 1 µM; at MMP-1 (setting [2]), at least 10 µM; at aggrecanase-1 (setting [3]), at least 10 µM.

As to `O=C(NCCO)c1cccc(C2CC2(NS(=O)(=O)c2ccc(-c3ccc(Cl)cc3)s2)C(=O)O)c1` (stereo not drawn) [Example 2-75], the IC50 on Recombinant Human MMP-13 (setting [1]) is below 1 µM; at MMP-1 (setting [2]), at least 10 µM; at aggrecanase-1 (setting [3]) it was below 1 µM.

As to `CC1[C@H](c2ccccc2)[C@]1(NS(=O)(=O)c1ccc(-c2cc(C(C)(F)F)on2)s1)C(=O)O` (stereo partly drawn) [Example 2-609], the concentration for half-maximal inhibition (IC50) at Recombinant Human MMP-13 (setting [4]), at MMP-1 (setting [5]) and at aggrecanase-1 (setting [6]) was below 0.1 µM in each case.

With `O=C(NO)C1(NS(=O)(=O)c2ccc(OCc3ccc(Cl)cc3Cl)cc2)CC1c1ccccc1` (stereo not drawn) [Example 1-2, 1-[4-(2,4-Dichlorobenzyloxy)benzenesulfonylamino]-2-phenylcyclopropanecarboxylic acid hydroxyamide], the IC50 at Recombinant Human MMP-13 (setting [1]) was below 0.1 µM; at MMP-1 (setting [2]), at least 1 µM; on aggrecanase-1 (setting [3]), below 0.1 µM.

As for `O=C(O)C1(NS(=O)(=O)c2ccc(-c3cc(C(F)(F)F)on3)s2)C2CCOc3ccccc3C21` (stereo not drawn) [Example 2-370], the results for the half-inhibitory concentration (IC50) on Recombinant Human MMP-13 (setting [4]), on MMP-1 (setting [5]) and on aggrecanase-1 (setting [6]) were below 0.1 µM, below 1 µM and below 0.1 µM, respectively.

Take `CCC(=O)c1ccc(S(=O)(=O)NC2(C(=O)O)CC2c2ccccc2)s1` (stereo not drawn) [Example 2-116]: the IC50 at Recombinant Human MMP-13 (setting [1]), on MMP-1 (setting [2]) and on aggrecanase-1 (setting [3]) was at least 10 µM in each case.
